Experimental data: patent US7612200B2, “Inhibitors of protein kinases” (Locus Pharmaceuticals, Inc., priority 2004, dated 2009)

What was measured:
Format in all cases: biochemical
[1] = molecular target: PDGFR-beta (Homo sapiens, UniProt P09619); test: Kinase activity at ATP Km,app, PDGFR-beta; conditions: 40 min, compound 2 μM
Description: PDGFRβ Kinase Activity: In a final reaction volume of 25 μl, PDGFRβ (h) (5-10 mU) is incubated with 8 mM MOPS pH 7.0 0.2 mM EDTA, 0.1 mg/ml poly(Glu, Tyr) 4:1, 10 mM MnCl2, 10 mM MgAcetate and [γ-^33P-ATP] (specific activity approx. 500 cpm/pmol, concentration as required). The reaction is initiated by the addition of the MgATP mix. After incubation for 40 minutes at room temperature, the reaction is stopped by the addition of 5 μl of a 3% phosphoric acid solution. 10 μl of the reaction is then spotted onto a Filtermat A and washed three times for 5 minutes in 75 mM phosphoric acid and once in methanol prior to drying and scintillation counting.

[2] = molecular target: FGFR1 (Homo sapiens, UniProt P11362); test: Kinase activity at ATP Km,app, FGFR1; conditions: compound 2 μM
FGFR1, sequence (P11362 22-822, species assumed): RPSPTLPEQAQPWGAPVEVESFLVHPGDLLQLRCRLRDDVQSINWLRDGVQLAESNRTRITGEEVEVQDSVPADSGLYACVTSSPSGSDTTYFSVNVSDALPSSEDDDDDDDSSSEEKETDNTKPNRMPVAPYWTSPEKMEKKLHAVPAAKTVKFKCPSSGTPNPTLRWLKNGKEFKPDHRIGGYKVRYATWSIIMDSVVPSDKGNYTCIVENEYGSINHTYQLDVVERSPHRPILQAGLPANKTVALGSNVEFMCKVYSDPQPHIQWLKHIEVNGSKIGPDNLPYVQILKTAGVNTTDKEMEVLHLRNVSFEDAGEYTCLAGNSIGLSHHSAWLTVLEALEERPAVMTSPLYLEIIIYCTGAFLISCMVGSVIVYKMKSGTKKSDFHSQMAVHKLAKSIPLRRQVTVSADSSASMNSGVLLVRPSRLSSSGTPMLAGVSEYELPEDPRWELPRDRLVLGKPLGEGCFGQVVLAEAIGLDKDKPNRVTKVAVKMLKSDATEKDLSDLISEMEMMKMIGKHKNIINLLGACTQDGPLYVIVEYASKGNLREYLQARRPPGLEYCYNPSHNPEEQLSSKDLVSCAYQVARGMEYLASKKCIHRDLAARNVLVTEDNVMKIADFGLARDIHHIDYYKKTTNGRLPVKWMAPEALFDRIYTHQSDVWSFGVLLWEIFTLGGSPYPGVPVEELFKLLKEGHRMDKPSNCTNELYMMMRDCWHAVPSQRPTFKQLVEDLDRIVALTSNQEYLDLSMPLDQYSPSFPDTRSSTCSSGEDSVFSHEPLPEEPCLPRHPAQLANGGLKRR

[3] = molecular target: CK2-alpha 1 (Homo sapiens, UniProt P68400); test: Kinase activity at ATP Km,app, CK2-alpha 1; conditions: compound 2 μM
CK2-alpha 1, sequence (P68400 whole entry): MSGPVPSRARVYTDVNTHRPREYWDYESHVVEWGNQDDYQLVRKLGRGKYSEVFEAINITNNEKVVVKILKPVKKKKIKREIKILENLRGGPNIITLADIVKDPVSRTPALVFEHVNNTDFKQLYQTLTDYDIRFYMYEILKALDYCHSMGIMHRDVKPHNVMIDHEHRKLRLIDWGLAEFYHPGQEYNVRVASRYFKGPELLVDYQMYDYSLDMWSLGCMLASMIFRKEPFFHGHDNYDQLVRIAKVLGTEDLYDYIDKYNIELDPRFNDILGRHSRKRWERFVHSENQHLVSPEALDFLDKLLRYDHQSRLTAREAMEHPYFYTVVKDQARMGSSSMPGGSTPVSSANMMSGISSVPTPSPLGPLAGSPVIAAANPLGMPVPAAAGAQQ

[4] = molecular target: T1, IRAK4 (Homo sapiens, UniProt Q9NWZ3); test: Kinase activity at ATP Km,app, IRAK4; conditions: compound 2 μM
T1 sequence (Q9NWZ3 1-460): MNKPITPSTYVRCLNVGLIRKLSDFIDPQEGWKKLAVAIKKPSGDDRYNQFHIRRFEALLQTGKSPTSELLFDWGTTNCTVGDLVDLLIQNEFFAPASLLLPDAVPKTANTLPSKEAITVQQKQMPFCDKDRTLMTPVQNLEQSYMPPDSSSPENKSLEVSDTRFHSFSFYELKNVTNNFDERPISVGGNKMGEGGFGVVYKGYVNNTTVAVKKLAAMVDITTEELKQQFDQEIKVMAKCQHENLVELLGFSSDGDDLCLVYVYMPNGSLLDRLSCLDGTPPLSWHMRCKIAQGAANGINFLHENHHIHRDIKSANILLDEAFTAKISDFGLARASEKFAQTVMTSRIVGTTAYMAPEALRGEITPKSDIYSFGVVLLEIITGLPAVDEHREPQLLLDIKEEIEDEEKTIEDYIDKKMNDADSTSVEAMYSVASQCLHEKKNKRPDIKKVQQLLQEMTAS

[5] = molecular target: Akt1 (Homo sapiens, UniProt P31749); test: Kinase activity at ATP Km,app, Akt1; conditions: compound 2 μM
Akt1, sequence (P31749 whole entry, species assumed): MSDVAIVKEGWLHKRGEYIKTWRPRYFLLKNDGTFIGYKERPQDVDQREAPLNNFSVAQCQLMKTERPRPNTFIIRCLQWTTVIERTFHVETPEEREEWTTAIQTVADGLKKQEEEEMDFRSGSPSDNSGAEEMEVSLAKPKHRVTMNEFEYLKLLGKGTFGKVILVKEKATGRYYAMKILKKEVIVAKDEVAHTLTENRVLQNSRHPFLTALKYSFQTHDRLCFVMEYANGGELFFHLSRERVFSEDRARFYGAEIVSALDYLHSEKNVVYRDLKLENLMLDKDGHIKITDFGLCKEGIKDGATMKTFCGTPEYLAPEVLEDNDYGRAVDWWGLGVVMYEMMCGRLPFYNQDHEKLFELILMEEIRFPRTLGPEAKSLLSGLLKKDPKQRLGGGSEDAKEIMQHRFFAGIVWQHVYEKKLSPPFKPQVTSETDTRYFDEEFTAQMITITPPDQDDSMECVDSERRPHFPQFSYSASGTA

[6] = molecular target: GSK3-beta (Homo sapiens, UniProt P49841); test: Kinase activity at ATP Km,app, GSK3-beta; conditions: 40 min, compound 2 μM
GSK3-beta, sequence (P49841 whole entry): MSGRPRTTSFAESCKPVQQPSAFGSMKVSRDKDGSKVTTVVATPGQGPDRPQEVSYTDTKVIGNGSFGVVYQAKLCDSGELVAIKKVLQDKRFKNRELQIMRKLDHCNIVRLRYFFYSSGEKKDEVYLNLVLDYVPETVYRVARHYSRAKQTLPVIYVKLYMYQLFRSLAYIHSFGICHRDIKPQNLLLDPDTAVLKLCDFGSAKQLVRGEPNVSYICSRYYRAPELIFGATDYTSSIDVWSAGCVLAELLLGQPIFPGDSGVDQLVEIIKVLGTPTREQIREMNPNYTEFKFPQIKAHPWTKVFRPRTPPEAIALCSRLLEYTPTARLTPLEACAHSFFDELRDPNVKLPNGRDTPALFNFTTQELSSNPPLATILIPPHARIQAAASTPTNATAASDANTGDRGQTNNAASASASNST
Description: GSK3β Kinase Activity: In a final reaction volume of 25 μl, GSK3β (h) (5-10 mU) is incubated with […] MOPS pH 7.0, 0.2 mM EDTA, […](p)EDEEE (phosphor GS2 peptide), 10 mM MgAcetate and [γ-^33P-ATP] (specific activity approx. 500 cpm/pmol, concentration as required). The reaction is initiated by the addition of the MgATP mix. After incubation for 40 minutes at room temperature, the reaction is stopped by the addition of 5 μl of a 3% phosphoric acid solution. 10 μl of the reaction is then spotted onto a P30 filtermat and washed three times for 5 minutes in 50 mM phosphoric acid and once in methanol prior to drying and scintillation counting.

[7] = molecular target: T2, Flt3 (Homo sapiens, UniProt P36888); test: Kinase activity at ATP Km,app, Flt3; conditions: 40 min, compound 2 μM
T2 sequence (P36888 27-993): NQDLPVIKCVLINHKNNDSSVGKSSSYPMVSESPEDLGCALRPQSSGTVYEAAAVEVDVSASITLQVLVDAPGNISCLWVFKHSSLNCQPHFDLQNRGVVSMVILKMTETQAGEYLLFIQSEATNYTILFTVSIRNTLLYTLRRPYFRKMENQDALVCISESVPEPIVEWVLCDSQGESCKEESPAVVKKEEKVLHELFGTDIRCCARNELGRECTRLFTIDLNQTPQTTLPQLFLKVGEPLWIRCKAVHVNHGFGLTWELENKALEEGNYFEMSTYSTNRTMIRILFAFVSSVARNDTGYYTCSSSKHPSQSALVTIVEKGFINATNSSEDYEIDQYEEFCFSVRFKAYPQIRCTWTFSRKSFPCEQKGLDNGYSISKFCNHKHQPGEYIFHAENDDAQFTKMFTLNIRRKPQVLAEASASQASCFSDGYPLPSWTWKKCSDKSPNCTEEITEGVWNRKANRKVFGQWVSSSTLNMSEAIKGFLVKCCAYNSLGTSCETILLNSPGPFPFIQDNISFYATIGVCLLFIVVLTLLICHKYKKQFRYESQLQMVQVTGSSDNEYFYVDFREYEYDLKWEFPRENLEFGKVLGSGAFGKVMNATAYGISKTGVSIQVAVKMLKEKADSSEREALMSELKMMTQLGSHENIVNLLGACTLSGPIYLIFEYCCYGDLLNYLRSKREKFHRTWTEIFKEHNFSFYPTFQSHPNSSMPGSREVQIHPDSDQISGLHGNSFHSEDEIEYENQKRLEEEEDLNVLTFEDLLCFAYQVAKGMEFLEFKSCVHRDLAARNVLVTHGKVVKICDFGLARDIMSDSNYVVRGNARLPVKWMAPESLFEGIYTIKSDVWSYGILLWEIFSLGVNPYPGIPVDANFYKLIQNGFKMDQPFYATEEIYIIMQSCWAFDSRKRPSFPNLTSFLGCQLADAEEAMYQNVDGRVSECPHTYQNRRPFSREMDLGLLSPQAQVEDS
Description: Flt3 Kinase Activity: In a final reaction volume of 25 μl, Flt3 (h) (5-10 mU) is incubated with 8 mM MOPS pH 7.0, 0.2 mM EDTA, 50 μM EAIYAAPFAKKK, 10 mM MgAcetate and [γ-^33P-ATP] (specific activity approx. 500 cpm/pmol, concentration as required). The reaction is initiated by the addition of the MgATP mix. After incubation for 40 minutes at room temperature, the reaction is stopped by the addition of […] of a 3% phosphoric acid solution. […] of the reaction is then spotted onto a P30 filtermat and washed three times for 5 minutes in 75 mM phosphoric acid and once in methanol prior to drying and scintillation counting.

PDGFR-beta, sequence (P09619 33-1106): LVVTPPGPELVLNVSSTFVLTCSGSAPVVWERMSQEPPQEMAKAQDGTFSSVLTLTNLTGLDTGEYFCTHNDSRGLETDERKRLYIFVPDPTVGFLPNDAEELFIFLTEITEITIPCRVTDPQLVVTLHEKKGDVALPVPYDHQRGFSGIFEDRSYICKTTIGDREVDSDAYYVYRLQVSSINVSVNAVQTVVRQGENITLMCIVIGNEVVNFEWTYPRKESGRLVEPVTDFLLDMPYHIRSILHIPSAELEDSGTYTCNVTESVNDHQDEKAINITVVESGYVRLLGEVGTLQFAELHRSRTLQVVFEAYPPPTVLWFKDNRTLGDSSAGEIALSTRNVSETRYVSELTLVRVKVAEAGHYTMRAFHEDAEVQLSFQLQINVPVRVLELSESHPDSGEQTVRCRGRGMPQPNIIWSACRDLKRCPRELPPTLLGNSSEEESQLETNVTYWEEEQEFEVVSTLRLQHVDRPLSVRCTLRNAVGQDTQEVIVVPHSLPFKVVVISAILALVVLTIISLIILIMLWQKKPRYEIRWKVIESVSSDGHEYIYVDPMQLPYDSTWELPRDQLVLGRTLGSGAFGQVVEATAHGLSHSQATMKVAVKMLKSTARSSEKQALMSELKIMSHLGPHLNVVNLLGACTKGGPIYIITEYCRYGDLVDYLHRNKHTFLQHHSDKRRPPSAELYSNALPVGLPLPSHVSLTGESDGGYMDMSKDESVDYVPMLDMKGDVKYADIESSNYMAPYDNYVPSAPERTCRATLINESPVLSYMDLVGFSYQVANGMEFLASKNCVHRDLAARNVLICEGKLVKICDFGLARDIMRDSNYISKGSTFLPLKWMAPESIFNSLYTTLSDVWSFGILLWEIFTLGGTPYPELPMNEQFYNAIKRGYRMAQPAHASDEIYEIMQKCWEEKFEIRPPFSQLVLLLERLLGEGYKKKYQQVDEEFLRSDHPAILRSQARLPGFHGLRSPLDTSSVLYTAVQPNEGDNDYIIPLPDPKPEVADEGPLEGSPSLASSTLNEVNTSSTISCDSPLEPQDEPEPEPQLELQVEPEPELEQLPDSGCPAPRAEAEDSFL

For `CC(C)(C)c1cc(C(=O)N2CCNC(=O)CC2)c(NC(=O)Nc2ccc(Oc3ccncc3)cc2)s1` [Example 4, 1-(5-tert-Butyl-3-(5-oxo-[1,4]diazepane-1-carbonyl)thiophen-2-yl)-3-(4-(pyridin-4-yloxy)phenyl)urea], which inhibition at 2 µM [1] is on record?
The inhibition at 2 µM was 26 to 50%.

What about the inhibition at 2 µM [2] of the same molecule?
Its inhibition at 2 µM is 26 to 50%.

And the inhibition at 2 µM [3]?
The inhibition at 2 µM was 0 to 25%.

And the “% Inhibition at ATP Km,app” value [4]?
The value was 0-25%.

And the inhibition at 2 µM [5]?
The inhibition at 2 µM was 0 to 25%.

And the inhibition at 2 µM [6]?
The inhibition at 2 µM was 0 to 25%.

What about the inhibition at 2 µM [7] of the same molecule?
Its inhibition at 2 µM is 76 to 100%.

What does the source list for `CC(C)(C)c1cc(C(=O)N2CCNS(=O)(=O)CC2)c(NC(=O)Nc2ccc(Oc3ccncc3)cc2)s1` [Example 1, 1-(5-tert-Butyl-3-(1,1-dioxo-1λ^6-[1,2,5]thiadiazepane-5-carbonyl)thiophen-2-yl)-3-(4-(pyridin-4-yloxy)phenyl)urea]?
inhibition at 2 µM [1]: 26 to 50%; inhibition at 2 µM [2]: 0 to 25%; inhibition at 2 µM [3]: 0 to 25%; % Inhibition at ATP Km,app [4]: 0-25%; inhibition at 2 µM [5]: 0 to 25%; inhibition at 2 µM [6]: 0 to 25%; inhibition at 2 µM [7]: 76 to 100%

What does the source list for `CC(C)(C)c1cc(C(=O)N2CCNC(=O)C2)c(NC(=O)Nc2ccc(Oc3ccncc3)cc2)s1` [Example 2, 1-(5-tert-Butyl-3-(3-oxo-piperazine-1-carbonyl)thiophen-2-yl)-3-(4-(pyridin-4-yloxy)phenyl)urea]?
inhibition at 2 µM [1]: 26 to 50%; inhibition at 2 µM [2]: 0 to 25%; inhibition at 2 µM [3]: 0 to 25%; % Inhibition at ATP Km,app [4]: 0-25%; inhibition at 2 µM [5]: 0 to 25%; inhibition at 2 µM [6]: 0 to 25%; inhibition at 2 µM [7]: 76 to 100%
